Data taken from PubChem BioAssay (NCI).
Several values for one entry are separate records, joined by “and”; a condition that tells them apart may be missing. Equal values may be shown once.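 These data come from cells grown in 96-well plates and exposed to compound for 48 hours at five concentrations. GI50 is the concentration that inhibits growth by half. TGI marks complete inhibition of growth.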

Legend:
Experiment in all cases: NCI-60 cell line screen, 48 h
HS 578T breast = tested on: HS 578T breast
SK-MEL-2 melanoma = tested on: SK-MEL-2 melanoma
HOP-92 NSCLC = tested on: HOP-92 NSCLC
UACC-62 melanoma = tested on: UACC-62 melanoma
RXF 393 renal = tested on: RXF 393 renal
SR leukemia = tested on: SR leukemia
IGROV1 ovarian = tested on: IGROV1 ovarian
HOP-62 NSCLC = tested on: HOP-62 NSCLC
KM12 colon = tested on: KM12 colon
K-562 leukemia = tested on: K-562 leukemia

SMILES | GI50 (HS 578T breast) | TGI (HS 578T breast) | GI50 (SK-MEL-2 melanoma) | TGI (SK-MEL-2 melanoma) | GI50 (HOP-92 NSCLC) | TGI (HOP-92 NSCLC) | GI50 (UACC-62 melanoma) | TGI (UACC-62 melanoma) | GI50 (RXF 393 renal) | TGI (RXF 393 renal) | GI50 (SR leukemia) | TGI (SR leukemia) | GI50 (IGROV1 ovarian) | TGI (IGROV1 ovarian) | GI50 (HOP-62 NSCLC) | TGI (HOP-62 NSCLC) | GI50 (KM12 colon) | TGI (KM12 colon) | GI50 (K-562 leukemia) | TGI (K-562 leukemia)
Cc1cc2c(cc1C)[n+](Cc1ccc3ccccc3n1)cn2Cc1ccc2ccccc2n1 | 1.94 µM | 5.48 µM | 1.57 µM | 3.12 µM | 0.484 µM | 2 µM | 0.612 µM | 2.1 µM | 1.17 µM | 2.45 µM | 1.12 µM | 3.21 µM | 0.57 µM | 2.21 µM | 1.27 µM | 3.13 µM | 0.568 µM | 2.06 µM | 0.527 µM | 3 µM
CNC(=O)c1cc2c(Oc3ccc(NC(=S)NC(=O)Cc4ccccc4)cc3F)ccnc2cc1OC | 1.29 µM | 8.05 µM | > 29.9 µM | > 100 µM | 1.67 µM | > 100 µM | 3.43 µM | > 100 µM | 2.02 µM | 6.55 µM | 5.78 µM | > 100 µM | 5.96 µM | > 100 µM | 22.6 µM | > 100 µM | 3.91 µM | > 100 µM | 0.502 µM | > 100 µM
O=C1N[C@H]2[C@H](O)[C@H](O)[C@@H](O)[C@H](O)[C@@H]2c2cc3c(c(O)c21)OCO3 | 0.021 µM and 0.0403 µM | 0.0941 µM and 0.0978 µM | 0.266 µM |  | 0.333 µM |  | 0.246 µM and 0.412 µM |  | 0.148 µM and 0.423 µM |  | 0.0248 µM | 0.511 µM and 3.31 µM | 0.349 µM and 0.757 µM |  | 0.246 µM and 0.0935 µM | 0.93 µM and 0.532 µM and 0.182 µM | 0.234 µM | 2.8 µM and 0.41 µM | 0.216 µM and 0.214 µM | 
CNCCCn1c2c(c3ccc(F)cc3c1=O)C(=O)c1cc(OC)cnc1-2 | 2.24 µM | 16.2 µM | 1.6 µM | 7.37 µM | 0.371 µM | 3.15 µM | 0.608 µM | 2.68 µM | 0.316 µM | 1.38 µM | 0.12 µM | 1.13 µM | 0.32 µM | 4.11 µM | 0.142 µM | 0.42 µM | 0.242 µM | 1.48 µM | 0.172 µM | 1.92 µM
Clc1ccc(N2CCC(N3CCCC3)CC2)cc1-c1nc2ccccc2[nH]1 | 16.8 µM | 51.7 µM | 19.3 µM | 36.6 µM | 13.4 µM | 42.8 µM | 16.2 µM | 32.1 µM | 12.9 µM | 26.8 µM | 20.1 µM | 58.7 µM | 33.8 µM | > 100 µM | 19.8 µM | 40.1 µM | 22.6 µM | 55.2 µM | 17 µM | 44.5 µM
CCCC#CCOC(=O)c1cc([N+](=O)[O-])cc([N+](=O)[O-])c1 |  | > 100 µM |  | > 100 µM |  | > 100 µM |  | > 100 µM |  |  |  | > 100 µM |  | > 100 µM |  | > 100 µM |  | > 100 µM |  | > 100 µM
CCOC(=O)c1nc2cc(C(F)(F)F)ccc2[n+]([O-])c1C | > 100 µM | > 100 µM | > 100 µM | > 100 µM |  |  | > 100 µM | > 100 µM | 33.9 µM | > 100 µM | > 100 µM | > 100 µM | > 100 µM | > 100 µM | > 100 µM | > 100 µM | > 100 µM | > 100 µM | > 100 µM | > 100 µM
O=c1cc(O)c2c(O)cc(O)cc2o1 |  | > 100 µM |  | > 100 µM |  | > 100 µM |  | > 100 µM |  | > 100 µM |  | > 100 µM |  | > 100 µM |  | > 100 µM |  |  |  | > 100 µM
O=C(Nc1cccc(-n2cc(-c3ccncc3)c(-c3ccc(O)c(Cl)c3)n2)c1)c1ccc(Cl)c(Cl)c1 | 2.82 µM | > 100 µM | 11.6 µM | 38.6 µM | 2.33 µM | 28.4 µM | 10.8 µM | 47.6 µM |  |  | 3.57 µM | > 100 µM | 25.5 µM | > 100 µM | 20.3 µM | > 100 µM | 5.44 µM | > 100 µM | 3.48 µM | > 100 µM
Cc1ccc(C(=O)N=Nc2c(O)[nH]c3ccc(Cl)cc23)cc1 | > 50 µM | > 50 µM | > 50 µM | > 50 µM |  |  | 9.3 µM | 23.1 µM | 13.7 µM | > 50 µM | > 50 µM | > 50 µM | 36.6 µM | > 50 µM |  |  | > 50 µM | > 50 µM | 16.2 µM | > 50 µM
COc1ccc(-c2nnc(Nc3nc(O)c(C4=c5cc(F)ccc5=NC4=O)s3)o2)cc1 | 69.1 µM | > 100 µM | 33.7 µM | > 100 µM | 87 µM | > 100 µM | 35.1 µM | > 100 µM | 65.8 µM | > 100 µM |  |  | 14.3 µM | 51.4 µM | 18.2 µM | 43.7 µM | 43.1 µM | > 100 µM | 37.1 µM | > 100 µM
COc1ccc(C(=O)OC2C(OC3C(O)COC(O[C@H]4C[C@H]5[C@@H]6CC=C7C[C@@H](O)CC[C@]7(C)[C@H]6CC[C@]5(C)[C@H]4[C@H](C)C(=O)CCC(C)C)C3OC(C)=O)OCC(O)C2O)cc1 (stereo not given in full) | < 0.003 µM | 0.0215 µM | < 0.003 µM | 0.0101 µM | 0.00636 µM | 1.43 µM | < 0.003 µM | < 0.003 µM | < 0.003 µM | < 0.003 µM | < 0.003 µM | 0.682 µM | < 0.003 µM | 8.79 µM | < 0.003 µM | 0.592 µM | 0.00399 µM | 4.48 µM |  | 
O=C(COc1ccc(-c2nc3cc(Cl)c(Cl)cc3[nH]2)cc1)N=Nc1c(O)[nH]c2ccccc12 | 1.61 µM | 5.68 µM | 3.84 µM | 24.1 µM | 1.59 µM | 5.22 µM | 2.83 µM | > 100 µM | 2.71 µM | 9.77 µM | 0.803 µM | 31.7 µM | 3.13 µM | > 53.3 µM |  | > 40.8 µM |  |  | 0.675 µM | > 100 µM
CC(=O)/C(=C\c1c(-c2ccccc2)[nH]c2ccccc12)S(=O)(=O)c1ccccc1 | 3.81 µM | > 93.8 µM | 1.39 µM | 5.3 µM | 3.66 µM | 15.4 µM | 0.975 µM | 4.46 µM | 1.25 µM | 2.8 µM |  |  | 1.51 µM | 4.37 µM | 1.18 µM | 3.03 µM | 1.01 µM | 2.65 µM | 0.406 µM | 2.43 µM
